According to paper PMC6270570, “New Flurbiprofen Derivatives: Synthesis, Membrane Affinity and Evaluation of in Vitro Effect on β-Amyloid Levels” (Molecules, 2013):
Read-outs that look alike come from different tables or passages of the source.

Assays:
[1] = IAM-HPLC affinity for membrane phospholipids (logKIAM/W); format: physicochemical; details: IAM.PC.MG column, pH 7.0 phosphate buffer/acetonitrile, extrapolated to 100% aqueous eluent
Procedure: n-Octanol/water partition coefficients were theoretically calculated by the program clogP for windows version 2.0 (Biobyte Corp., Claremont, CA, USA). Affinity for membrane phospholipids, so called “phospholipophilicity”, was measured by HPLC on a phospholipid stationary phase. […] liquid chromatograph (Waters-Millipore, Milford, MA, USA), equipped with a 7125 Rheodyne injection valve and a 486 UV detector (Waters) set at 246 nm, was used. The column was an IAM.PC.MG (Immobilized Artificial Membrane-PhosphatidylCholine-MethylGlycolate) (4.6 mm × 150 mm) (Regis Chemical Company, Morton Grove, IL, USA). The mobile phase was 0.01 M phosphate buffer at pH 7.0 and acetonitrile at percentages ranging from 10 to 35 percent (v/v) (from 1.0 to 4.0 mL/min). The chromatography was carried out at room temperature. All samples were dissolved in methanol (ca. 10^-3 M) and 20 μL samples were injected in the chromatograph. Chromatographic retention data are expressed as the logarithm of the capacity factor, log k, defined as: log k = log [(tr - t0)/t0] (1) where tr and t0 are the retention times of the drug and a non-retained compound (citric acid), respectively. The log k values relative to 100% aqueous eluent (logKIAM/W) were calculated by performing a polycratic method of extrapolation. Each compound was eluted with at least three different mobile phases containing acetonitrile in different percentages (φ). […] All values of log k reported are the average of at least three measurements; the 95% confidence interval never exceeded 0.04 for each log k value. Possible occurrence of retention changes due to column aging was monitored by checking the retention times of five test compounds (amlodipine, p-nitroaniline, toluene, isradipine, and ketoprofen).

Aβ-42 = assay: Western blotting of Aβ-42 expression in CTXTNA2 astrocytes (in vitro γ-secretase activity); format: cell-based, rat; details: 24 h
Procedure: CTXTNA2 cell line, established from primary cultures of type 1 astrocytes from brain frontal cortex tissue of 1 day old rats, was obtained by ECACC (Salisbury, UK). Cells have been maintained in DMEM, 10% FBS at 37 °C, 5% CO2 until sub-confluence and incubated for 24 h with a DMSO solution of drug (concentrations ranging from 1 µM to 100 µM). For detection of cell viability, a Trypan blue dye exclusion test has been performed.
Cell lysates (20 µg) have been electrophoresed and transferred to nitrocellulose membrane. Nitrocellulose membranes, blocked in 5% non-fat milk, 10 mmol/L Tris pH 7.5, 100 mmol/L NaCl, 0.1% Tween-20, have been probed with mouse APP (Millipore, Billerica, MA, USA) and Aβ (Alpha Diagnostic Intl, San Antonio, TX, USA) monoclonal antibodies (Santa Cruz Biotechnology, Santa Cruz, CA, USA), then incubated in the presence of specific enzyme conjugated IgG horseradish peroxidase. Immunoreactive bands have been detected by ECL detection system (Amersham Intl., Buckinghamshire, UK) and analysed by densitometry. Densitometric values, expressed as Integrated Optical Intensity (I.O.I.), have been estimated in a CHEMIDOC XRS system by the QuantiOne 1-D analysis software (BioRad, Richmond, CA, USA). Values obtained have been normalized basing on densitometric values of internal β tubulin. Statistical analysis has been performed using the analysis of variance (ANOVA). Results have been expressed as mean ± SD. Values of p < 0.05 have been considered statistically significant.

APP = details: 24 h
Procedure: For detection of cell viability, a Trypan blue dye exclusion test has been performed [33].
Cell lysates (20 µg) have been electrophoresed and transferred to nitrocellulose membrane. […] Immunoreactive bands have been detected by ECL detection system (Amersham Intl., Buckinghamshire, UK) and analysed by densitometry. Densitometric values, expressed as Integrated Optical Intensity (I.O.I.), have been estimated in a CHEMIDOC XRS system by the QuantiOne 1-D analysis software (BioRad, Richmond, CA, USA). Values obtained have been normalized basing on densitometric values of internal β tubulin. Statistical analysis has been performed using the analysis of variance (ANOVA). Results have been expressed as mean ± SD. Values of p < 0.05 have been considered statistically significant.

[2] = PAMPA-GI permeability (egg lecithin in dodecane); format: in vitro ADME; details: read-out: PAMPA-GI Pe
Procedure: (§1) The following protocol was applied to measure the Pe through the artificial membrane to predict oral absorption and BBB permeation. In order to study the g.i. permeability, a 2% solution (w/v) of egg lecithin (phosphatidyl choline > 98%, PC) in dodecane was employed as an artificial membrane solution. The effective permeability of BBB was measured using phospholipid mixture from porcine polar brain lipid extract, composed by PC 12.6%, phosphatidylethanolamine (PE) 33.1%, phosphatidylserine (PS) 18.5%, phosphatidylinositol (PI) 4.1%, phospatidic acid (PA) 0.8% and 30.9% of other compounds (purchased from Avantis Polar Lipids, Alabaster, AL, USA). Each donor filtration plate well was then impregnated with 5 µL of this solution carefully, and immediately after 150 µL of phosphate buffer (pH 7.4/pH 6.5), containing co-drug 1 500 µM and iPrOH 20% as co-solvent was added. Then the drug-filled donor plate was placed into the acceptor plate that had been prefilled with the same buffer (300 µL) as acceptor solution. After plate lid was replaced, the resulting assembled donor-acceptor plates were incubated at r.t. for 2 h for PAMPA-GI and 18 h for PAMPA-BBB, following which drugs concentration in the acceptor and donor solutions were determined by HPLC [37].
(§2) Log Pe can be calculated from the equation below: [drawing 10] (2) where Pe is the effective permeability coefficient (cm x s^−1), VD is volume of donor compartment (0.15 cm^3) and VA is volume of acceptor compartment (0.30 cm^3), A is effective filter area (0.28 cm^2), t is incubation time for the assay (s), Cacceptor is the concentration of the compound in the acceptor compartment at the completion of the assay, and Cequilibrium is the concentration of compound at theoretical equilibrium.

[3] = PAMPA-BBB permeability (porcine polar brain lipid extract); format: in vitro ADME; details: PAMPA
Procedure: as §1, §2

[4] = pH 7.4, 18 h of incubation, read-out: PAMPA-BBB Pe

Compound	LogKIAM/W [1]	Expression of Aβ-42 (Aβ-42; 1 µM)	Expression of Aβ-42 (Aβ-42; 10 µM)	Expression of Aβ-42 (Aβ-42; 100 µM)	melting point	Expression of APP (APP; 1 µM)	Expression of APP (APP; 10 µM)	Expression of APP (APP; 100 µM)	Papp at 2 h, 500 µM ([2]; pH 6.5, 2 h of incubation)	Papp at 2 h, 500 µM ([2]; pH 7.4, 2 h of incubation)	Papp at 18 h, 500 µM [3, 4]	Papp at 18 h, 500 µM ([3]; read-out: Pe, BBB penetration)
C[C@@H](C(=O)N[C@@H]1C(=O)N(C)c2ccccc2-c2ccccc21)c1ccc(-c2ccccc2)c(F)c1 [Compound 5, (2R)-2-(2-Fluoro-1,1'-biphenyl-4-yl)-N-[(7S)-5-methyl-6-oxo-6,7-dihydro-5H-dibenzo[b,d]azepin-7-yl]propanamide]	3.93	(17.4. ± 0.3) × 10^−2	(17.1 ± 0.6) × 10^−2	(17.4. ± 0.5) × 10^−2	102 to 103 °C	(41.1 ± 1.7) × 10^−2	(44.2 ± 2.1) × 10^−2	(49.2 ± 3.2) × 10^−2				
C[C@H](C(=O)N[C@H]1C(=O)N(C)c2ccccc2-c2ccccc21)c1ccc(-c2ccccc2)c(F)c1 [Compound 6, (2S)-2-(2-Fluoro-1,1'-biphenyl-4-yl)-N-[(7R)-5-methyl-6-oxo-6,7-dihydro-5H-dibenzo[b,d]azepin-7-yl]propanamide]	3.93	(19.0 ± 0.6) × 10^−2	(16.2 ± 0.5) × 10^−2	(13.4 ± 0.7) × 10^−2	104 to 105 °C	(11.3 ± 0.4) × 10^−2	(10.4 ± 0.2) × 10^−2	(13.5 ± 0.5) × 10^−2				
C[C@H](NC(=O)Cc1cc(F)cc(F)c1)C(=O)N[C@H](C(=O)OC(C)(C)C)c1ccccc1 [DAPT, reference compound]	1.61	(8.3 ± 0.2) × 10−2	(6.4 ± 0.1) × 10−2	(5.5 ± 0.3) × 10−2		(65.4 ± 2.8) × 10−2	(62.1 ± 2.8) × 10−2	(58.3 ± 1.9) × 10−2	2.5 ×10⁻⁶ cm/s	2.6 ×10⁻⁶ cm/s	2.2 ×10⁻⁶ cm/s	
C[C@H](NC(=O)[C@@H](O)c1cc(F)cc(F)c1)C(=O)N[C@@H]1C(=O)N(C)c2ccccc2-c2ccccc21 [LY-411575, reference compound]	1.85	(8.2 ± 0.1) × 10^−2	(6.0 ± 0.1) × 10^−2	(4.1 ± 0.2) × 10^−2		(64.0 ± 2.4) × 10^−2	(54.7 ± 2.0) × 10^−2	(57.2 ± 1.2) × 10^−2	2.3 ×10⁻⁶ cm/s	2.5 ×10⁻⁶ cm/s	2 ×10⁻⁶ cm/s	
CC(C)[C@H](O)C(=O)N[C@@H](C)C(=O)N[C@@H]1C(=O)N(C)CCc2ccccc21 [LY-450139, reference compound]	0.11	(9.4. ± 0.3) × 10^−2	(5.1 ± 0.1) × 10^−2	(5.4 ± 0.2) × 10^−2		(65.9 ± 2.3) × 10^−2	(60.0 ± 1.6) × 10^−2	(58.8 ± 2.5) × 10^−2	1.6 ×10⁻⁶ cm/s	1.8 ×10⁻⁶ cm/s	1.4 ×10⁻⁶ cm/s	
C[C@@H](C(=O)O)c1ccc(-c2ccccc2)c(F)c1 [R-FLU, (R)-enantiomer of flurbiprofen, reference compound]	1.82	(20.5 ± 0.7) × 10^−2	(19.1 ± 0.5) × 10^−2	(14.1 ± 0.7) × 10^−2		(60.0 ± 1.3) × 10^−2	(54.5 ± 2.3) × 10^−2	(52.1 ± 2.1) × 10^−2	2.4 ×10⁻⁶ cm/s	2.1 ×10⁻⁶ cm/s	1.6 ×10⁻⁶ cm/s	≥ 2 ×10⁻⁶ cm/s
C[C@H](C(=O)O)c1ccc(-c2ccccc2)c(F)c1 [S-Flurbiprofen, reference compound]		(18.8. ± 0.6) × 10^−2	(19.0 ± 0.7) × 10^−2	(15.4 ± 0.3) × 10^−2		(60.6 ± 2.5) × 10^−2	(65.2 ± 1.8) × 10^−2	(53.2 ± 1.9) × 10^−2				
